Measured values: patent US10517926B2, “Oligopeptide having proinflammatory cytokine secretion-inhibiting activity” (Osaka University, priority 2015, dated 2019)

Assays:
NFκB (p65) = NFκB (p65) activation (TransAM NFkB p65 Kit); type: cell-based, mouse; conditions: RAW264.7 cells; MHP1 100 μg/ml, 10 minutes; FIG. 12C
Method: (§1) It has recently been reported that the administration of RANKL protein to mice induces the activation of osteoclasts. Accordingly, the influence of the RANKL peptide on osteoclasts was examined. The specific examination procedures were as follows. MHP1 (final concentration: 100 μg/ml) or RANKL protein (final concentration: 10 ng/ml) was added to a medium (DMEM medium (+4% FBS)) in which RAW264.7 cells were cultured, and the cells were collected after 10 minutes and 3 days.
(§2) For the samples collected after 10 minutes, nuclear proteins of the cells were extracted using the Nuclear Extract Kit (Active Motif), and the degree of NFκB (p65) activation was measured by the TransAM NFkB p65 Kit (Active Motif). On the other hand, for the samples collected after 3 days, the mRNA expression levels of NFATc1 and ACP5 were analyzed by real-time RT-PCR.

RAW264.7 cells = assay: Osteoclast-related mRNA expression (NFATc1, ACP5) by real-time RT-PCR; type: cell-based, mouse; conditions: MHP1 100 μg/ml, 3 days, FIG. 12A, 12B
Method: as §1, §2

MG6 cells [1] = assay: Proinflammatory cytokine secretion inhibition, LPS-stimulated microglial cells (ELISA); type: cell-based, mouse; conditions: MG6 cells, peptide 50 or 100 μg/ml, LPS 2 ng/ml, 24 hours
Method: MG6 cells (mouse-derived microglial cell line) were cultured in a DMEM medium (+4% FBS) containing MHP1 or MHP2 (final concentration: 50 or 100 μg/ml), and LPS (final concentration: 2 ng/ml) for 24 hours by a standard method. After culture, the concentrations of IL-6 and TNFα in the medium were measured by the ELISA method. In the Examples of the present application, the ELISA method was performed using a kit (Quantikine ELISA Mouse TNF-α or Quantikine ELISA Mouse IL-6, produced by R&D Systems). The results are shown in FIG. 1 (IL-6) and FIG. 2 (TNFα).
The proinflammatory cytokine secretion-inhibiting effect was examined in the same as in Example 2, except that the final concentration of MHP1 was set to 100 μg/ml, and that RANKL full-length protein was used at a final concentration of 10 ng/ml or 100 ng/ml as the comparison target.

MG6 cells [2] = assay: M1 shift of microglial cells by LPS (FACS); type: cell-based, mouse; conditions: MHP1 100 μg/ml, LPS 2 ng/ml, 24 hours; FIG. 8
Method: MG6 cells (mouse-derived microglial cell line) were cultured in a DMEM medium (+4% FBS) containing MHP1 (final concentration: 100 μg/ml) or RANKL protein (Recombinant Murin sRANKL Ligand (Cat No. 315-11): produced by Peprotech) (final concentration: 10 ng/ml), and LPS (final concentration: 2 ng/ml) for 24 hours by a standard method. After culture, the cells were washed with PBS, and Fc receptor blocking was performed using mouse IgG. Thereafter, F4/80-FITC (microglia marker antibody) and CD206-APC (M2 marker antibody) were added, and reacted at 4° C. for 30 minutes in a dark place. After the reaction, the cells were washed with PBS, and the percentage of microglia marker-positive and M2 marker-positive (M2 state) cells, and the percentage of microglia marker-positive and M2 marker-negative (M1 state) cells were measured by FACS analysis (FACSCanto II, produced by BD Biosciences).

[3] = tested on: cerebral infarction model mice; assay: Necrosis inhibition by intravenous administration in cerebral infarction models; type: in vivo, mouse; conditions: 300 μG i.v. 4 hours after infarction, then 336 μg s.c. over 21 hours
Method: A cerebral ischemic area was artificially developed in wild-type mice (C57BL6/J) using embolic suture. Specifically, nylon suture was inserted from the right external carotid artery into the intracranial internal carotid artery, and the right middle cerebral artery was temporarily occluded. The embolic suture was removed 40 minutes after the formation of the ischemic area, and the blood was reperfused. Four hours after the formation of the ischemic area, 2 μl of MHP1 solution (0.625 μg/2 μl, the solvent was artificial cerebrospinal fluid (aCSF)) or 2 μl of aCSF was administered by injection into the ventricle of the mice with a neurological severe score of 1 or 2. […] The area of the cresyl violet staining site was regarded as the cerebral infarct area (necrosis site), and the ratio of cerebral infarct area was determined by the following formula. […]
Cerebral infarction models were produced in the same manner as in Example 10. […] Twenty-four hours and forty-eight hours after the production of the cerebral infarction models, neurological severity scores were measured. Furthermore, the mice were sacrificed 48 hours after the production of the cerebral infarction models, and the ratio of cerebral infarct area was determined in the same manner as in Example 10.

THP1 cells = assay: Proinflammatory cytokine secretion inhibition, human macrophage cells; type: cell-based; conditions: MHP6 10-100 μg/ml or MHP1 100 μg/ml, LPS 2 ng/ml, 24 hours, FIG. 14
Method: THP1 cells (human-derived macrophage cell line) were cultured in a DMEM medium (+4% FBS) containing MHP6 (human-derived; final concentration: 10, 30, 50, or 100 μg/ml) or MHP1 (mouse-derived; final concentration: 100 μg/ml), and LPS (final concentration: 2 ng/ml) for 24 hours by a standard method. After culture, the concentration of IL-6 in the medium was measured by the ELISA method.

LMVYVVKTSIKIPSSHNLMKGGSTKNWSGN (listed as Mus musculus) [MHP1]
NFκB (p65) activation (NFκB (p65)): slightly activated | expression of osteoclast-related mRNA (NFATc1, ACP5) (RAW264.7 cells): did not promote | increase in the amount of IL-6 secretion by LPS (MG6 cells [1]; FIG. 1): suppressed | increase in the amount of TNFα secretion by LPS (MG6 cells [1]; FIG. 2): suppressed | M1 shift caused by LPS (MG6 cells [2]): suppressed | symptoms of cerebral infarction (neurological severity scores) ([3]; 24 and 48 hours, FIG. 23): could be relieved | necrosis occurring after cerebral ischemia (ratio of cerebral infarct area) ([3]; 48 hours, FIG. 22): could be suppressed | proinflammatory cytokine (IL-6) secretion-inhibiting activity on human-derived macrophage cells (THP1 cells): exhibited proinflammatory cytokine secretion-inhibiting activity
